Legend:
[1] = target: His-tagged human STING CDN domain (Homo sapiens, UniProt Q86WV6); assay: Surface Plasmon Resonance (SPR) binding; details: steady state
Protocol: SPR was employed for binding measurements using His-tagged human STING CDN domain. A GE Healthcare Biacore T200 was equipped with an Ni-NTA chip. […] The sensorgrams were analyzed using Biacore T200 Software 3.0 (GE Healthcare) and steady state was measured at 4 sec before injection stop, exported into Graphpad, and fit vs concentration using a one site specific binding model to calculate the apparent equilibrium dissociation constant (KD). Where appropriate, kinetics were measured using a 1:1 Langmuir binding model with Rmax set to local to obtain the association rate (Kon), dissociation (Koff), and the KD.

[2] = target: His-labeled STING (hSTING) (Homo sapiens, UniProt Q86WV6); assay: Microscale thermophoresis (MST) binding assay; details: for direct binding to hSTING by MST: FIG. 4
Protocol: Nanotemper Monolith NT.115 labeled thermophoresis machine was used with standard treated capillary tubes using samples comprised of labeled protein and titrations of small molecule in 1×PBS. […] Detection of the protein was performed using the blue detection channel with LED excitation power set to 90% and MST set to high allowing 3 s prior to MST on to check for initial fluorescence differences, 25 s for thermophoresis, and 3 s for regeneration after MST off.

hSTING = hSTING (Homo sapiens, UniProt Q86WV6); details: native ligand, literature ITC value used for model validation; read-out: ITC binding energetics (KD); cited from earlier work
[3] = system: STING-induced IRF3 expression; assay: Competition of 335504 with agonist 2,3-cGAMP in THP-1 cells; format: cell-based, human
Description: FIG. 6 depicts the effect of various concentrations of 335504 and known agonist 2,3-cGAMP on luminescence measured from THP-1 monocytic leukemia cells. […] This effect, however, is not seen at higher concentrations due to the synergistic effect of the compounds on the IFN-β signaling pathway in these cells.

[4] = system: STING pathway (interferon stimulated genes, IRF3 promoter); assay: Luciferase reporter assay in THP1-ISG-Lucia cells
Protocol: To maintain selection pressure, 10 μg/ml of blasticidin and 100 μg/ml of Zeocin™ was added to the growth medium every other passage.
For compounds, 10 mM stock solution in 100% DMSO was diluted 1:4 with ultrapure Milli Q water. For the positive control, 1 mM stock solution in 100% Milli Q H2O was diluted 3:1 with water. 50 μL of QUANTI-Luc™ luminesence assay reagent (Invivogen) was added after 18-24 h incubation period. Expression of Lucia luciferase was quantified by measuring luminescence from duplicate treatments. Data illustrated were average luminescence changes shown relative to DMSO-treated cells.
For compounds, 10 mM stock solution in 100% DMSO was diluted 1:4 with ultrapure Milli Q water. For the positive control, 1 mM stock solution in 100% Milli Q H2O was diluted 3:1 with water. 50 μL of QUANTI-Luc™ luminesence assay reagent (Invivogen, San Diego, Calif., USA) was added after 18-24 h incubation period. Expression of Lucia luciferase was quantified by measuring luminescence from duplicate treatments. Data illustrated are average luminescence changes shown relative to DMSO-treated cells. A Glowmax luminometer (Promega, Madison, Wis., USA) was used. QUANTI-Luc™ was prepared following the manufacturer's instructions. 10 μl of THP1-Dual™ KI-hSTING-R232 cell culture supernatant was pipetted into each well in a 96-well white (opaque) plate. 50 μl of QUANTI-Luc™ was added to each well. The measurement was then immediately taken using a 4 sec incubation time and integrating over 1 sec.
A luciferase assay utilizing monocytic leukemia THP-1 cells was carried out to determine the upregulation of the IRF3 promoter gene as a downstream indicator of STING pathway activation.
FIG. 4C depicts a plot of luminescence vs. log of concentration of a luciferase assay utilizing monocytic leukemia THP-1 cells that was carried out to determine the regulation of interferon stimulated genes (ISG).

Chain of His-labeled STING (hSTING) (Q86WV6 153-340 H232R limits assumed): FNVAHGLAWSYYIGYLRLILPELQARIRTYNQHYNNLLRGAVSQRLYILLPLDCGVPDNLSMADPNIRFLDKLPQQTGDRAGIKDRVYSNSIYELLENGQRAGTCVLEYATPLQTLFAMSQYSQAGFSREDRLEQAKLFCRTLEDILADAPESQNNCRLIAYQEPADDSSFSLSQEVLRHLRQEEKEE
Chain of His-tagged human STING CDN domain (Q86WV6 153-340 H232R limits assumed): as above
Chain of hSTING (Q86WV6 139-379 H232R limits assumed): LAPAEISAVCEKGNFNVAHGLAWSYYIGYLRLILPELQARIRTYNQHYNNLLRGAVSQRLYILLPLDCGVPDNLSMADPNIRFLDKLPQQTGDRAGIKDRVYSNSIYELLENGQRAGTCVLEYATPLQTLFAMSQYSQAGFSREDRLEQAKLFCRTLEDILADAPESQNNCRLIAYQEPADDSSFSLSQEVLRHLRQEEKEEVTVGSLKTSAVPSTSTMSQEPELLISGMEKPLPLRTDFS

Row | SMILES | Kd [1] [nM] | direct binding to hSTING by MST [2] | Kd (hSTING) [nM] | Kd ([2]; rough initial estimate of binding affinity) [nM] | IC50 ([3]; Homo sapiens, THP-1 monocytic leukemia cells, with agonist 2,3-cGAMP, FIG. 7) [nM] | competition with 2,3-cGAMP (luminescence) ([3]; single to double digit concentrations of 335504, FIG. 6) | ISG output (luminescence) vs DMSO blank ([4]; 3 μM, FIG. 2) | effect on cells at higher concentrations ([4]; >20 μM, DMSO percentages increased) | EC50 ([4]; Homo sapiens, THP-1, read-out: luciferase assay EC50) [nM] | effect in luciferase assay compared to 2,3-cGAMP ([4]; THP-1 cells) | increase in Luciferase activity compared to the blank ([4]; THP-1 cells, FIG. 4) [%]
1 | Nc1nc2c(ncn2[C@@H]2O[C@@H]3COP(=O)(O)O[C@H]4[C@@H](O)[C@H](n5cnc6c(=O)[nH]c(N)nc65)O[C@@H]4COP(=O)(O)O[C@H]3[C@H]2O)c(=O)[nH]1 [c-di-GMP] | 4800 | binds but with lesser affinity | 1200 |  |  |  |  |  |  |  | 
2 | Cc1c(Cl)cccc1Nc1ncccc1C(=O)OCC(O)CO (stereo not shown) [NSC 335504] | 430 ± 140 | bind to hSTING |  | 260 ± 66 | ~4.8 | competition of the compound with 2,3cGAMP can be observed | large increase in ISG output | appeared to cause cell death | 29000 ± 1600 | significantly lower | 50
